A melting point compilation (Tetko et al.; mined from patent text by program, amines drawn as free bases though some values may be those of a salt)

SMILES	melting point [°C]
CC(C)(Cc1c[nH]c2ccc(Br)cc12)[N+](=O)[O-]	106 to 109
CCOC(=O)C1=C(C)NC(c2ncsc2Cl)=NC1c1ccc(F)cc1Cl (stereo unspecified)	149 to 152
Cc1ccccc1N1C(=O)CN2C(=O)CCC21 (stereo unspecified)	138 to 139
Cc1c(Br)sc2cc(C(=O)Cn3ccnc3)ccc12	184 to 186
CC(C)(O)Cn1cnc2cnc3ccccc3c21	169 to 170
Cc1cc2c(cc1Cl)N(C)C(=O)C2(NC(=O)CN1CCN(C)CC1)c1ccc(Cl)cc1 (stereo unspecified)	217 to 219
Cc1cc(C)c2c(c1)-c1cc(Br)c(C)cc1P(=O)(O)O2	260
CCNC(CC)c1ccc(Cl)c2nc3n(c12)CCCN3c1ccc(Cl)cc1Cl (stereo unspecified)	124 to 127
COc1ccccc1N1CCN(CCC(C(N)=O)(c2ccccn2)c2ccccc2[N+](=O)[O-])CC1 (stereo unspecified)	63 to 72
CC(=O)C=C(C)Nc1ccccc1C#N	100
CSc1ncncc1C(c1ccccc1F)C(C)(C)C(=O)O (stereo unspecified)	204 to 205
CC(=O)c1cc(-c2ccc(C(C)(C)C)cc2)c2c(c1)C(C)(C)CCC2(C)C	134
O[C@H](COc1cccc2[nH]ccc12)CN1CC=C(c2c[nH]c3c(Cl)c(Cl)ccc23)CC1	140 to 145
Cn1nnnc1-c1nccn1Cc1ccccc1	110 to 111
CCCCc1ccc2oc(=O)c(=O)oc2c1	88 to 93
CCCCCCCCCCCCn1nnc(N(C(=O)Nc2ccc(F)cc2F)c2ccccc2)n1	55 to 57
CC(=O)OC1(C(N)=O)CCCc2cc(C)cnc21 (stereo unspecified)	205
CC(=O)Oc1cccc(-c2csc3nc(C45CC6CC(CC(C6)C4)C5)cn23)c1	199 to 201
CC1(OCc2ccccc2F)COC(c2ccco2)OC1 (stereo unspecified)	67.5 to 69
CCOC(=O)CCc1c(C)c2c(O)cc(C(C)CCCc3ccccc3)cc2oc1=O (stereo unspecified)	58 to 70
O=C(NC(=O)c1c(F)cccc1F)Nc1cc(Br)c(F)c(Cl)c1F	225 to 227

SMILES	melting point [°C]
CCN1CCCC1CNC(=O)c1cc([N+](=O)[O-])c(Cl)cc1OC (stereo unspecified)	107 to 108
CC1(C)OC(CCN)CC(CC(=O)O)O1 (stereo unspecified)	165
CCCCOC(=O)[C@H](Cc1ccc(O)cc1)NC(=O)C1(NC(=O)[C@@H](S)C(C)C)CCCC1	182 to 183
CC1=NC(NC(=O)Nc2cccc(C)c2)C(=O)N(CC(=O)N2CC3CCC(CC3)C2)c2c(C)cccc21 (stereo unspecified)	177 to 179
NCc1ccccc1N	58 to 61
CCOCc1nc2c(N)nc3cc(-c4cccc(C(=O)N5CCCC5)c4)ccc3c2n1CC(C)(C)O	216 to 218
Nc1nnc(CCC2CCCCC2)s1	253 to 255
CCCCc1ccc(-n2c(-c3ccc(SC)cc3)nc(SC)c(C#N)c2=O)cc1	138 to 141
Cc1c(Cl)ccc(C(=O)c2cnn(C)c2O)c1Cl	131 to 135
O=c1c2ccccc2nc(CCc2c[nH]c3ccccc23)n1-c1ccccc1	193 to 194
Cn1c(C(F)(F)F)cc(=O)n(-c2cc(O)c(Br)cc2F)c1=O	192
CC(=O)Oc1c(C)ccc2c1NC(O)C1CCCN1C2=O (stereo unspecified)	142 to 145
CC(C)(C)Oc1ccc(CCC(=O)O)cc1	29 to 31
CCCc1nc2c(N)nc3ccccc3c2n1CCCCNS(C)(=O)=O	186 to 188
CCOC(=O)c1cnncc1NC(=O)Cc1c(F)cc(F)cc1F	143 to 144
N#Cc1c(Cl)cccc1C(F)(F)F	45 to 47
Cc1cccc(COCC2OC(n3cc(C(F)(F)F)c(=O)[nH]c3=O)CC2O)c1 (stereo unspecified)	169 to 171
O=c1c(-c2ccccc2F)c(CNc2ncnc3[nH]cnc23)oc2ccccc12	143 to 147
CCCN(CCC)C1COc2cccc(C(=O)C3CC3)c2C1 (stereo unspecified)	100 to 102
COc1cc(Cc2cnc(NCCSCc3nc[nH]c3C)[nH]c2=O)ccn1	177 to 178
CC(C)C(O)CN1N=C(c2ccc(Cl)cc2)CCC1=O (stereo unspecified)	90 to 92

SMILES	melting point [°C]
O=C(O)c1cc(S(=O)C(F)(F)F)c(Cl)cc1Cl (stereo unspecified)	176 to 178
COC(=O)c1cc(NC(C)=O)c(F)c(-c2ccc(Cl)c(OC)c2F)n1	189 to 191
Cc1c(C)c2c(c(C)c1O)C(C(=O)O)C(C)(C)O2 (stereo unspecified)	161 to 164
CN1CCCCc2cc(Nc3ncc(Cl)c(Nc4ccccc4NS(C)(=O)=O)n3)ccc21	170 to 172
COC(=O)c1sc2cccc(C#N)c2c1N	169 to 170
CCOc1cccnc1CSCCN=C(NC)NC#N	126 to 128
C=CCc1cccc2c(=O)cc(-c3ccc(F)c(F)c3)oc12	127 to 130
Clc1nc[nH]c2ncc(I)c1-2	195 to 196
CC(C)(C)c1csc(-c2cc3cc(CO)ccc3o2)n1	143 to 144
COC(=O)c1ccccc1S(=O)(=O)NC(=O)n1nc(Cl)n(N(C)C)c1=O	146
O=C1C2=C(CCCC2)C(=O)N1c1ccc(Cl)cc1F	81 to 82
O=C(N1CC2CCC(C1)O2)C12CC3CC(CC(C3)C1)C2	134 to 136
CN1CC(=O)NC1=NC(=O)Nc1cccc([N+](=O)[O-])c1	182 to 188
CCCCNc1cc(-c2ccccc2)nc2onc(C)c12	126 to 127
CC1Cc2cc3c(cc2C(c2ccc([N+](=O)[O-])cc2)=NN1C(=S)Cl)OCO3 (stereo unspecified)	187 to 188
Cc1cc(Cl)cc(C(=O)NC(C)(C#N)C2CC2)c1NC(=O)c1cc(C(F)(F)F)nn1-c1ncccc1Cl (stereo unspecified)	226 to 228
CCNSc1ccc([N+](=O)[O-])cc1C(Cl)(Cl)Cl	80
CN(C)C1(c2ccccc2)CCC(CCCNC(=O)NCCc2c[nH]c3ccccc23)CC1 (stereo unspecified)	57
Cc1cc(NS(=O)(=O)c2ccc(Cl)cc2)cc(C)c1S(=O)(=O)C[N+](=O)[O-]	160 to 162
CCOc1ccc([N+](=O)[O-])cc1I	81 to 83

Continued, values first:

melting point [°C]	SMILES
198 to 201	Cc1nc2cnccc2n1-c1ccc(Cn2c(=O)sc3ccccc32)cc1
129 to 130	CCOC(=O)c1nc(CCl)n(-c2ccccc2C(=O)c2ccccn2)n1
101 to 102	O=C(c1cc(C(F)(F)F)cc(C(F)(F)F)c1)N1CCN(C(=O)CN2CCC(O)(c3ccccc3)CC2)C(c2ccccc2)C1 (racemic)
160 to 162	CC(C)(C)C(=O)c1ccc(C(=O)O)cc1
217 to 219	N#Cc1c(N)oc2c(-c3ccccc3)cccc2c1=O
171 to 174	COc1ccc(C(=O)Nc2ccc(C(=O)c3ccccc3)cc2)cc1
128	CC(C)(C)OC(=O)NCc1ccc(CNC(=O)N2CCN(C(=O)OCc3ccccc3)CC2)cc1
112 to 113	c1csc(-c2ncc(COc3ccc(CCCn4ccnc4)cc3)s2)c1
194 to 196	NNC(=O)c1ccccc1-c1ccc([N+](=O)[O-])cc1
150 to 152	O=C(CCCCCCCc1ccccc1)NNC(=O)c1ccc(O)cc1
92 to 94	C[C@@H](Cc1ccc(O)cc1)NS(=O)(=O)c1ccccc1
184 to 187	COc1ccc2c(c1)C(OC(C)C)=C(C(=O)O)S2=O (stereo unspecified)
96 to 97	OCC[Si](c1ccccc1)(c1ccccc1)c1ccccc1
55 to 58	CCCCOc1ccc(S(=O)(=O)N2CC(NC[C@H](O)COc3ccc(O)cc3)C2)cc1
192	CCNC(=O)c1cccc(NC(=O)c2nnn(Cc3ccc(Cl)c(Cl)c3)c2C)c1
83 to 84	CCCCC(C(=O)O)c1cccc(Oc2ccccc2C)c1O (stereo unspecified)
297 to 299	COc1cc(Nc2nc3c(s2)CCCC3c2ccccc2)ccc1C(=O)NN (stereo unspecified)
47	Brc1cccc(Sc2ccccc2)n1
40	COCCc1nc2c(N)nc3ccccc3c2n1CCCNC(=O)Nc1ccccc1
186 to 189	Cc1ccccc1-n1c(-c2cc(-c3ccc(Cl)cc3)c(N3CCOCC3)s2)nc2ccccc2c1=O

melting point [°C]	SMILES
120	CCOC(=O)Cc1ccccc1N(C(=O)CNC(=O)Nc1cccc(C)c1)c1ccccc1
146	CC(C)Cn1c(CO)c(-c2cccc(F)c2)c2cc(OCc3ccccc3)ccc2c1=O
214	CCOC(=O)C(C)(C)Oc1ccc(-c2ccc(CCNC(=O)c3ccc(C)cc3)cc2)cc1
220 to 221	CSc1ccc(-c2cc(-c3nc4ccccc4c(=O)n3-c3cccc(C)c3)sc2N2CCOCC2)cc1
> 250	CC(C)n1nc(-c2nc(C(N)=S)c(N)nc2-c2ccccc2)ccc1=O
303	O=C(NNC(=O)c1ccccc1O)c1ccccc1O
145 to 146	CC1(C)C(=O)C(c2ccccc2)=C1c1ccc(S(C)(=O)=O)cc1
208 to 209	COC(=O)NC1=NC(c2cccc3ccccc23)CN1 (stereo unspecified)
137 to 138	O=C(NCCO)c1cccc(-c2cccc3nn(Cc4ccc(F)cc4)cc23)c1
169	O=C(Cc1ccccc1)Nc1cnc(-c2ccccc2)nc1Cl
169 to 170	O=[N+]([O-])c1ccc(-n2nnnc2-c2ccccc2Br)cc1
294 to 295	Nc1ccc(C(=O)NCCNC(=O)c2ccc(N)cc2)cc1
207 to 208	COc1ccc(C(=O)Nc2ccccc2)cc1Nc1cc(Cl)cc(Cl)c1
> 250	CC(=O)Nc1nc(O)c2cc(C=C(C)c3ccc(C(=O)O)cc3)cnc2n1
269	COc1ccc(C(C)=Nc2ccc(C3=NNC(=O)CC3)cc2)c(O)c1
206 to 210	O=C(O)Cc1c(C(=O)c2ccccc2)[nH]c2cc(Cl)c(Cl)cc12
186 to 187	Cc1c(NC(=O)c2ccc(-c3ccc(Cl)s3)cc2)ccc2cc(CN3CCCCCC3)cnc12
182	Sc1nc2ccccc2n1CCCN1CCN(C(c2ccccc2)c2ccccc2)CC1
231 to 233	O=C(O)Cn1nc(-c2ccccc2O)nc1-c1ccccc1O
